According to patent US8685976B2, “Cell adhesion promoting agent and method of promoting cell adhesion” (Kyoto University, priority 2008, dated 2014):

How the values were obtained:
[1] = test system: Jurkat cells; test: Cell adhesion assay by coating; assay type: cell-based, human; settings: 50 μg/well
Experimental: The surface area per well is 0.3 cm^2.
The assay samples (adhesamine (1), Type I collagen, poly-L-lysine hydrochloride, poly-L-ornithine hydrobromide, and fibronectin) were adjusted in concentration by being diluted with 10 mM PBS containing 1% DMSO. […] Thereafter, the wells were washed with Milli-Q water twice. 100 μL of Jurkat cell suspension (1×10^6 cells/mL) was added to each of coated wells. After 5-hour incubation at 37° C., non-adhered cells were removed by washing each well with PBS twice, and attached cells were counted with a Neubauer counting chamber (Digital Bio).

[2] = test system: Jurkat cells; test: Cell detachment assay; assay type: cell-based, human; settings: 24 hour after washing (removal of adhesamine)
Experimental: FIG. 2 is a graph illustrating a reversible activity of adhesamine (1). The attached cells were counted at the indicated time points after removal of adhesamine (1). In order to calculate adhesion rates, the number of cells before washing was assigned a value of 100%. Each assay was conducted in triplicate, and the means and the standard deviations were calculated for a minimum of three independent experiments.
1 μL DMSO solution of adhesamine (1) (6 mM) was dispensed to each well on a 96-well plate. Jurkat cells were suspended in the growth medium, and 100 μL of cell suspension was added to each well at a density of 1×10^6 cells/mL. After 5-hour incubation at 37° C., the medium was aspirated, and the plates were washed twice with PBS. 100 μL of fresh medium was added to each well. After further 4, 8, 14 and 24-hour incubation at 37° C., non-adhered cells were removed by washing with PBS twice, and the attached cells were counted with a Neubauer counting chamber. To calculate adhesion rates, the cell numbers before washing were assigned a value of 100%. Each assay was conducted in triplicate, and the means and standard derivations were calculated for a minimum of three independent experiments.

[3] = test system: Jurkat cells; test: Microinjection of Alexa Fluor 594; assay type: cell-based, human; settings: 5 μg/mL reagent
Experimental: The concentration of the reagents used was 5 μg/mL.
The solutions of adhesamine (1), Type I collagen, poly-L-lysine hydrochloride, and fibronectin were prepared by diluting with PBS containing 1% (v/v) DMSO. 10 μL of each solution (1 mg/mL) was added to glass bottom culture dishes (35 mm uncoated dish). 2 mL of cell suspension in a culture medium was added to each well at a density of 2×10^5 cells/mL. After 14-hour incubation at 37° C., Alexa Fluor 594 (Molecular Probes, USA) at a concentration of 5 mg/mL was injected into Jurkat cells by using a CI-2000 automated cell injection system (Fujitsu, Japan). Success rates of the microinjection were evaluated by direct observation of the fluorescent cells through a fluorescent-microscopic window of the injection system. The data shown are means±SD for a minimum of three experiments. 20 cells were injected in each experiment.

[4] = test system: Jurkat cells; test: Visualization of actin cytoskeleton with rhodamine-conjugated phalloidin, Jurkat; assay type: cell-based, human; settings: 6 μM
Experimental: (§1) In (A) and (B), the cell growth was determined at 24, 48, and 72 hours after the addition of adhesamine (1) (6 μM). The cell growth in the presence of 1% (v/v) DMSO was assigned a value of 100%. The data shown are means±SD for a minimum of three experiments. (C) to (F) show the rearrangement of actin filaments in HepG2 and Jurkat cells in the presence of adhesamine (6 μM). Brightfield images (C and D) and confocal images (E and F) are shown. HepG2 (C and E) or Jurkat (D and F) cells were plated for 5 hours or 3 hours, respectively, and actin cytoskeletal was visualized using rhodamine-labeled phalloidin.
(§2) Jurkat or HepG2 cells were plated onto glass coverslips in the presence of adhesamine (6 μM). They were fixed after 5 or 3 hours, respectively, with 4% paraformaldehyde for 20 minutes. The cell membrane was permeabilized by 5-min treatment with 0.1% Triton X-100 (in PBS). Samples were washed twice with PBS, and actin cytoskeleton was visualized with rhodamine-conjugated phalloidin according to the manufacturer's instructions (Invitrogen). The cell images were captured with a Yokogawa CSU22 confocal fluorescence microscope with 588-nm laser excitation.

[5] = test system: CHO F17 cells; test: Cell adhesion assay, CHO F17; assay type: cell-based; settings: CHO F17, 6 μM
Experimental: (A) and (B) show CHO-K1 (wild-type) cells incubated with 1% (v/v) DMSO (A) or 6 μM adhesamine (B). (C) and (D) show CHO 677 incubated with 1% (v/v) DMSO (A) or 6 μM adhesamine (B). […] Cells were seeded onto adhesamine-added or fibronectin-coated plastic wells. The concentrations of adhesamine and fibronectin were 6 μM and 5 μg/mL, respectively. Adhered cells were counted at 5 hours after seeding. Each point represents average±SD.
For CHO wild-type and CHO mutant cell lines, 100 μL of trypsinized cell suspension in a culture medium was added to each well at a density of 2×10^5 cells/mL. After 5-hour incubation at 37° C., non-adhered cells were removed by washing each well with PBS twice, and the attached cells were counted with a Neubauer counting chamber (Digital Bio). To calculate adhesion rates, the cell numbers before washing were assigned a value of 100%. Each assay was conducted in triplicate, and the means and standard derivations were calculated for a minimum of three independent experiments.

[6] = test system: focal adhesion kinase (FAK); test: Western blotting, FAK activation; assay type: cell-based, human; settings: Jurkat
Experimental: Jurkat cells were treated with adhesamine (6 μM) in a serum-poor culture medium (0.1% FBS) for the indicated periods of time. The treated cell lysates were Western blotted with antibodies against FAK phospho-tyrosine^397 (pFAK), FAK, ERK1/2 phospho-threonine^202/tyrosine^204 (pERK) or ERK. In (B), Jurkat cells were incubated for 5 hours with varied concentrations of adhesamine or poly-L-lysine. The cell lysates were Western blotted with antibodies against FAK phospho-tyrosine^397 or FAK. […] The concentration of adhesamine (1) was 6 μM.
Jurkat cells were maintained in an RPMI medium containing 10% FBS. 5-6 million Jurkat cells were dispensed to a well of a 6-well plate in a final volume of 2 mL, and then incubated at 37° C. for 0-5 hours in the presence of adhesamine or poly-L-lysine. Non-adherent cells were removed and pelleted, and the remaining adherent cells were lysed in a 125 mM Tris-HCl buffer (pH 6.8) containing 4% SDS, 10% glycerol, 0.006% bromophenol blue, and 1.8% β-mercaptoethanol. The adherent cell homogenate was combined with pelleted nonadherent cells from the same well, and the combined sample was boiled for 5 minutes. The samples were separated by SDS-PAGE and electroblotted onto a nitrocellulose membrane. The membranes were blocked in 1% BSA and incubated with primary antibody, and then with horseradish peroxidase-conjugated secondary antibody. The blots were developed using the enhanced chemiluminescence technique.

[7] = test system: HepG2 cells; test: Visualization of actin cytoskeleton with rhodamine-conjugated phalloidin, HepG2; assay type: cell-based; settings: HepG2, 6 μM
Experimental: as §1, §2

SMILES: CSc1nc(Cl)c(C=O)c(N2CC[N+]3(CC2)CC[N+]2(CCN(c4nc(SC)nc(Cl)c4C=O)CC2)CC3)n1 [adhesamine]
- cell attachment when applied as coating, compared with coating reagents [1]: greater effect than fibronectin, poly-L-lysine, and poly-L-ornithine
- Jurkat cells released from the surface of a culture plate [2]: 93%
- effect on microinjection success [3]: more than type I collagen, poly-L-lysine hydrochloride, and fibronectin
- microinjection success rates [3]: ≤ 80%
- actin cytoskeleton structure in adhered cells [4]: well-organized cortical actin structure
- response of cell adhesion to adhesamine [5]: responded
- time after stimulation at which FAK phosphorylation was demonstrated ([6]; 6 μM, serum-poor medium): 5 h
- concentration sufficient to phosphorylate FAK ([6]; 5 hours): 5 µg/mL
- actin cytoskeleton structure in adhered cells [7]: Actin filament bundles ran in parallel to the cell axis or through cell processes
